The record followed here is patent US9561228B2 (Celgene Avilomics Research, Inc., priority 2013, dated 2017).

Experiment [1] deals with ERK1/2 phosphorylation of p90RSK in HT29 cells. Nature of the experiment: pRSK MSD Assay in HT29 cells. The experiment is classed as cell-based. The settings on record: Homo sapiens, HT-29, read-out: ERK1/ERK2 PRSK MSD HT29 EC50. An outline of the steps:
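Serum-starved HT29 cells (0.1% FBS overnight) treated with test compound for 120 min at 37° C, then lysed with protease and phosphatase inhibitors. Phospho-p90RSK quantified by MSD sandwich immunoassay: RSK capture antibody, phospho-RSK detection antibody plus Sulfo-tagged antibody, electrochemiluminescence read.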

The subject of experiment [2] is HT-29 cells (colorectal adenocarcinoma). Nature of the experiment: Inhibition of cancer cell proliferation, HT-29 (CellTiterGlo, 72 hours). The settings on record: Homo sapiens. In kind it is cell-based. On the procedure: Measurement of Inhibition of Cancer Cell Proliferation (HT-29/Colorectal Adenocarcinoma)
The following protocol used an HT-29 cell line, which cell line is a model for colorectal adenocarcinoma. HT-29 cells were split and 3000 cells in 100 μl of growth medium were added per well of a flat-bottom 96-well plate. A two-fold test compound solution in serum-free RPM1640 was made, starting at 5,000 nM. Then, 3-fold serial dilutions were made across the plate from well 1 to well 11. Well 12, the last well in a row on the plate, was left as untreated control. 100 μl compound solutions were then transferred to the wells, so the total volume of media was 200 μl per well. Plates were returned to a 37° C. incubator, and the cells were cultured for 72 hours. To measure cell proliferation after 72 hours, media was discarded from the plates, 50 μl/well of fresh medium was added, and 50 μl CellTiterGlo solution was added (Promega Cat#G7573). The plate was covered with a dark lid and incubated for 10 min. A white sealing tape was applied to the bottom of the plate, and the plate was read in a luminescence plate reader. […] A 2-fold serial dilution was used to generate 8 cell densities from 50,000-390 cells per well in 50 μl media. 50 μl CellTiterGlo was added per well, and the plate was read in a luminescence plate reader after 10 min. The reading was plotted vs. cell number to generate a standard curve and the equation of the curve fit. The compound-treated sample luminescence readings were converted to cell numbers using the curve-fit equation. The percent of inhibition, using untreated control as 100% growth, was then calculated. GI50 was then calculated by GraphPad Prism.

Experiment [3] deals with T1, MEK1 activated ERK1 (Homo sapiens, UniProt P27361).
T1 construct: purchased Millipore (Billerica, Mass.) 14-439-K
Nature of the experiment: Omnia continuous-read kinase assay for potency against MEK1 activated ERK1. In kind it is biochemical. The note with it: MEK1 activated ERK1, ATP at KM; read-out: ERK1 Omnia WT ATP KM IC50. An outline of the steps:
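Apparent IC50 came from initial reaction slopes (RFU vs time) plotted against log inhibitor with a variable-slope fit. Reactions were started with ERK1 (4 nM final) added to 50 μM ATP, roughly at its appKM, and 10 μM Sox-conjugated ST17 peptide in 20 mM Tris pH 7.5, 5 mM MgCl2. Fluorescence was monitored every 71 seconds.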

T1 sequence (P27361 whole entry): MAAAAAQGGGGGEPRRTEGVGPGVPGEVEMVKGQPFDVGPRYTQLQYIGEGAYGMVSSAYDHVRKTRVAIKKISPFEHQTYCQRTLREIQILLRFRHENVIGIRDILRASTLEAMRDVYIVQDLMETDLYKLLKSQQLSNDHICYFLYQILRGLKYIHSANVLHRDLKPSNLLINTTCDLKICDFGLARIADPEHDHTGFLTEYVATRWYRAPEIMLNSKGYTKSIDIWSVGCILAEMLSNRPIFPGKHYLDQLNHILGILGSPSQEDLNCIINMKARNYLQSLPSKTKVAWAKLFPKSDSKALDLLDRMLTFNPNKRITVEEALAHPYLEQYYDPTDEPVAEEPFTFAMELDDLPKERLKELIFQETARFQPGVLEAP

As for `C=CC(=O)Nc1ccccc1Nc1nc(NC2CCN(S(C)(=O)=O)CC2)ncc1C(F)(F)F` [Compound I-13, N-(2-((2-((1-(methylsulfonyl)piperidin-4-yl)amino)-5-(trifluoromethyl)pyrimidin-4-yl)amino)phenyl)acrylamide], the EC50 in experiment [1] lay within 101 to 500 nM. In addition, in experiment [2], the GI50 was in the range of 101 to 500 nM.

For `C=CC(=O)Nc1ccccc1Nc1nc(Nc2cc(C(=O)NOCCO)ccc2OC)ncc1C(F)(F)F` [Compound I-74, 3-((4-((2-Acrylamidophenyl)amino)-5-(trifluoromethyl)pyrimidin-2-yl)amino)-N-(2-hydroxyethoxy)-4-methoxybenzamide], the EC50 in experiment [1] fell in the range of 501 to 999 nM. Moreover, in experiment [3], the IC50 fell in the range of 101 to 500 nM. In addition, the GI50 in experiment [2] was 101 to 500 nM.

Turning to `C=CC(=O)Nc1ccccc1Nc1nc(Nc2cc(C(=O)NOC)ccc2C)ncc1C(F)(F)F` [Compound I-69, 3-((4-((2-Acrylamidophenyl)amino)-5-(trifluoromethyl)pyrimidin-2-yl)amino)-N-methoxy-4-methylbenzamide], the EC50 in experiment [1] is 101 to 500 nM. In experiment [2], this compound yielded a GI50 of less than 100 nM.

For `C=CC(=O)Nc1ccccc1Nc1nc(N[C@H]2CCCN(C=O)C2)ncc1Cl` [Compound I-122, (S)—N-(2-((5-chloro-2-((1-formylpiperidin-3-yl)amino)pyrimidin-4-yl)amino)phenyl)acrylamide], the EC50 in experiment [1] was less than 100 nM. For the same compound, the IC50 in experiment [3] was less than 100 nM. For the same compound, the 50% growth inhibitory concentration (GI50) in experiment [2] fell in the range of 101 to 500 nM.

Take `C=CC(=O)Nc1cc(OC)ccc1Nc1nc(Nc2ccc(N(CC)C(C)=O)cc2C#N)ncc1Cl` [Compound I-164, N-(2-((5-chloro-2-((2-cyano-4-(N-ethylacetamido)phenyl)amino)pyrimidin-4-yl)amino)-5-methoxyphenyl)acrylamide]: the EC50 in experiment [1] was greater than 1000 nM. Also, the IC50 in experiment [3] was in the range of 101 to 500 nM. Further, in experiment [2], the GI50 is greater than 1000 nM.

In the case of `C=CC(=O)Nc1ccccc1Oc1nc(Nc2ccc(N3CCN(C(C)=O)CC3)cc2OC)ncc1C(N)=O` [Compound I-258, 2-((4-(4-acetylpiperazin-1-yl)-2-methoxyphenyl)amino)-4-(2-acrylamidophenoxyl)pyrimidine-5-carboxamide], the GI50 in experiment [2] is greater than 1000 nM.

Turning to `C=CC(=O)N[C@@H]1CCCC[C@H]1Nc1nc(Nc2cc(C(=O)NOC)ccc2C)ncc1C(N)=O` (racemic) [Compound I-256, Rac-trans-4-((2-acrylamidocyclohexyl)amino)-2-((5-(methoxycarbamoyl)-2-methylphenyl)amino)pyrimidine-5-carboxamide], in experiment [3], the IC50 is greater than 1000 nM. In experiment [2], this compound gave a GI50 greater than 1000 nM.

`C=CC(=O)Nc1ccccc1Nc1nc(NC2CCN(C(=O)CCCC(=O)NCCCOCCOCCOCCCNC(=O)CCCC[C@@H]3SC[C@@H]4NC(=O)N[C@@H]43)CC2)ncc1Cl` [Compound I-300, 5-(4-((4-((2-acrylamidophenyl)amino)-5-chloropyrimidin-2-yl)amino)piperidin-1-yl)-5-oxo-N-(15-oxo-19-((3aS,4S,6aR)-2-oxohexahydro-1H-thieno[3,4-d]imidazol-4-yl)-4,7,10-trioxa-14-azanonadecyl)pentanamide]: the EC50 in experiment [1] was greater than 1000 nM. For the same compound, in experiment [3], the IC50 is 101 to 500 nM. The GI50 in experiment [2] was greater than 1000 nM.

Turning to `C=CC(=O)Nc1cc(F)ccc1Nc1nc(Nc2ccc(F)cc2C#N)ncc1Cl` [Compound I-221, N-(2-((5-chloro-2-((2-cyano-4-fluorophenyl)amino)pyrimidin-4-yl)amino)-5-fluorophenyl)acrylamide], in experiment [1], the EC50 was less than 100 nM. For the same compound, the GI50 in experiment [2] lay within 501 to 999 nM.

For `C=CC(=O)Nc1ccccc1Oc1nc(Nc2ccc(N3CCC[C@@H]3C(N)=O)cc2OC)ncc1C(N)=O` [Compound I-266, (R)-4-(2-acrylamidophenoxy)-2-((4-(2-carbamoylpyrrolidin-1-yl)-2-methoxyphenyl)amino)pyrimidine-5-carboxamide], the IC50 in experiment [3] is 101 to 500 nM. The GI50 in experiment [2] is greater than 1000 nM.

As to `C=CC(=O)Nc1ccccc1Nc1nc(Nc2cc(C(N)=O)ccc2C#N)ncc1C(F)(F)F` [Compound I-71, 3-((4-((2-Acrylamidophenyl)amino)-5-(trifluoromethyl)pyrimidin-2-yl)amino)-4-cyanobenzamide], the EC50 in experiment [1] was less than 100 nM. In addition, the GI50 in experiment [2] is 101 to 500 nM.

Regarding `C=CC(=O)Nc1ccccc1Nc1nc(Nc2ccc(OCCCNC(=O)CCCC(=O)NCCCOCCOCCOCCCNC(=O)CCCC[C@H]3SC[C@H]4NC(=O)N[C@H]43)cc2OC)ncc1Cl` [Compound I-302, N^1-(3-(4-((4-((2-acrylamidophenyl)amino)-5-chloropyrimidin-2-yl)amino)-3-methoxyphenoxy)propyl)-N^5-(15-oxo-19-((3aR,4R,6aS)-2-oxohexahydro-1H-thieno[3,4-d]imidazol-4-yl)-4,7,10-trioxa-14-azanonadecyl)glutaramide], the EC50 in experiment [1] is greater than 1000 nM. In experiment [2], the GI50 is greater than 1000 nM.

Regarding `C=CC(=O)Nc1ccccc1Nc1nc(Nc2cc(C(N)=O)ccc2C#N)ncc1Cl` [Compound I-192, 3-((4-((2-acrylamidophenyl)amino)-5-chloropyrimidin-2-yl)amino)-4-cyanobenzamide], the EC50 in experiment [1] was less than 100 nM. This compound registered a GI50 in experiment [2] of less than 100 nM.

Take `C=CC(=O)Nc1ccccc1Nc1nc(NC2CCN(C=O)CC2)ncc1Cl` [Compound I-124, N-(2-((5-chloro-2-((1-formylpiperidin-4-yl)amino)pyrimidin-4-yl)amino)phenyl)acrylamide]: the EC50 in experiment [1] is less than 100 nM. In experiment [2], the concentration for 50% growth inhibition (GI50) lay within 101 to 500 nM.

`C=CC(=O)N[C@@H]1CCCC[C@H]1Nc1nc(Nc2cc(C(=O)NOC)ccc2C)ncc1Cl` [Compound I-190, 3-((4-(((1R,2R)-2-acrylamidocyclohexyl)amino)-5-chloropyrimidin-2-yl)amino)-N-methoxy-4-methylbenzamide]: the GI50 in experiment [2] was greater than 1000 nM.

Consider `C=CC(=O)Nc1ccccc1Nc1nc(Nc2cc(C(=O)NOC)ccc2C#N)ncc1C(F)(F)F` [Compound I-72, 3-((4-((2-Acrylamidophenyl)amino)-5-(trifluoromethyl)pyrimidin-2-yl)amino)-4-cyano-N-methoxybenzamide], for which the IC50 in experiment [3] was in the range of 101 to 500 nM. In experiment [2], this compound came in with a GI50 greater than 1000 nM.

For the compound `C=CC(=O)N[C@@H]1CCCC[C@H]1Nc1nc(Nc2cc(C(N)=O)ccc2C)ncc1C(N)=O` (racemic) [Compound I-255, Rac-trans-4-((2-acrylamidocyclohexyl)amino)-2-((5-carbamoyl-2-methylphenyl)amino)pyrimidine-5-carboxamide], the IC50 in experiment [3] is greater than 1000 nM. Further, the GI50 in experiment [2] was greater than 1000 nM.

Consider `C=CC(=O)Nc1ccccc1Nc1nc(N[C@H]2CCCN(C=O)C2)ncc1C(F)(F)F` [Compound I-9, (S)—N-(2-((2-((1-formylpiperidin-3-yl)amino)-5-(trifluoromethyl)pyrimidin-4-yl)amino)phenyl)acrylamide], for which, in experiment [1], the EC50 was less than 100 nM. For the same compound, the GI50 in experiment [2] was in the range of 101 to 500 nM.

For the compound `C=CC(=O)Nc1ccccc1Nc1nc(N[C@@H]2CCC[C@H](C(N)=O)C2)ncc1Cl` [Compound I-119, (1S,3R)-3-((4-((2-acrylamidophenyl)amino)-5-chloropyrimidin-2-yl)amino)cyclohexanecarboxamide], in experiment [1], the EC50 fell in the range of 501 to 999 nM. In experiment [2], this compound registered a GI50 of 101 to 500 nM.

For `C=CC(=O)Nc1ccccc1Nc1nc(Nc2cc(C(N)=O)ccc2CC)ncc1Cl` [Compound I-193, 3-((4-((2-acrylamidophenyl)amino)-5-chloropyrimidin-2-yl)amino)-4-ethylbenzamide], the EC50 in experiment [1] lay within 101 to 500 nM. In addition, the GI50 in experiment [2] lay within 101 to 500 nM.

With `CCOCCC(=O)Nc1ccccc1Nc1nc(Nc2cc(C(N)=O)ccc2C)ncc1Cl` [Compound I-130], the GI50 in experiment [2] is greater than 1000 nM.

In the case of `C=CC(=O)Nc1ccccc1Nc1nc(N[C@H]2CCCN(S(C)(=O)=O)C2)ncc1Cl` [Compound I-125, (S)—N-(2-((5-chloro-2-((1-(methylsulfonyl)piperidin-3-yl)amino)pyrimidin-4-yl)amino)phenyl)acrylamide], the EC50 in experiment [1] was in the range of 101 to 500 nM. This compound displayed a GI50 in experiment [2] of 101 to 500 nM.

`C=CC(=O)Nc1cc(F)ccc1Nc1nc(Nc2cc(C(N)=O)ccc2OC)ncc1Cl` [Compound I-208]: in experiment [1], the EC50 was less than 100 nM. The compound further yielded a GI50 in experiment [2] of 101 to 500 nM.
